Patent US20260000781A1, “FC CONJUGATES INCLUDING AN INHIBITOR OF CD73 AND USES THEREOF” (Cidara Therapeutics, Inc., priority 2022, published 2026)

Legend:
CD73 = molecular target: T1, CD73 (Homo sapiens, UniProt P21589); assay: Cell-free CD73 enzyme inhibition assay; format: biochemical; conditions: recombinant human CD73 0.1 ng/μL, AMP 100 μM, 25 min at 37° C. (FIG. 1A, 1B)
T1 sequence (P21589 27-549): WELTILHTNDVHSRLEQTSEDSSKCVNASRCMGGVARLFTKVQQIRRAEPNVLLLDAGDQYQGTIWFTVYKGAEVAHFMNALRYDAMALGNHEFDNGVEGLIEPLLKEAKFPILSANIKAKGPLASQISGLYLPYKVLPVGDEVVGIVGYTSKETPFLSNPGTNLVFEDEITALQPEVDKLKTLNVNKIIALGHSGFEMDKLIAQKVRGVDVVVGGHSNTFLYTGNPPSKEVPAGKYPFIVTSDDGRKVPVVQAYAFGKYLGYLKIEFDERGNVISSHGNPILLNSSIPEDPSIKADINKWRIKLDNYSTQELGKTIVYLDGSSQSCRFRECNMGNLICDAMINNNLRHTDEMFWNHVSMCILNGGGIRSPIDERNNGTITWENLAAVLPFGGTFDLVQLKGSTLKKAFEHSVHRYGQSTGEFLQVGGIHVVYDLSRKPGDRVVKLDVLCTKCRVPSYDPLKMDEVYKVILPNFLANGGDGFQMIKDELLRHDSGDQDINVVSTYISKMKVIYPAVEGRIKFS
Protocol: The cell-free CD73 enzyme inhibition assay was performed in a 96-well plate format using the CD73 Inhibitor Screening Assay Kit in accordance with the manufacturer's instructions (cat no. 72055, BPS Bioscience). […] Colorimetric detection reagent was then added (100 μL/well) and the free phosphate from the CD73 reaction was measured by reading the absorbance at 630 nm using the EnSpire multimode plate reader (PerkinElmer). Wells without test inhibitor (CD73 positive control) were included on each plate. Blank wells without test inhibitor and CD73 were subtracted from all wells. Percent CD73 inhibition versus inhibitor concentration was plotted using GraphPad Prism Version 8 and IC50's calculated using nonlinear regression analysis (Sigmoidal, 4 PL).
The cell-free CD73 enzyme inhibition assay was performed in a 96-well plate format using the CD73 Inhibitor Screening Assay Kit in accordance with the manufacturer's instructions (BPS Bioscience cat no. 72055). […] Colorimetric detection reagent was then added (100 μL/well) and the free phosphate from the CD73 reaction was measured by reading the absorbance at 630 nm using the EnSpire multimode plate reader (PerkinElmer). Wells without test inhibitor (CD73 positive control) were included on each plate. Blank wells without test inhibitor and CD73 were subtracted from all wells. Percent CD73 inhibition (y-axis) versus log10 inhibitor concentration (x-axis) was plotted using GraphPad Prism Version 8 and IC50's calculated using nonlinear regression analysis (Sigmoidal, 4 PL).

[1] = molecular target: T2, CD73 expressed on the MDA-MB-231 cell surface (Homo sapiens, UniProt P21589); assay: Cell-based CD73 enzyme inhibition assay on MDA-MB-231 cells; conditions: AMP 100 μM, 3 h (FIG. 2)
T2 construct: host or cells: MDA-MB-231
T2 sequence (P21589 27-549): T1 sequence (P21589 27-549)
Protocol: The cell-based CD73 enzyme inhibition assay was performed essentially as described above for the cell-free assay, with the following modifications.
(§1) The cell-based CD73 enzyme inhibition assay was performed essentially as described above for the cell-free assay, with the following modifications. MDA-MB-231 human breast adenocarcinoma cells (ATCC CRM-HTB-26) were seeded at 2×10^4 cells/well/100 μL into 96-well tissue culture-treated plates (Corning Costar cat no. 3596) and incubated overnight at 37° C., 5% CO2. […] The 96-well plate was then centrifuged at 125×g for 5 min at room temperature and ATP (25 μL/well, 100 μM final) was combined with supernatant (25 μL/well) in a white opaque 96-well plate (Corning Costar cat no. 3912).
as §1, with “3912). […] Percent CD73 inhibition (y-axis) versus log10 inhibitor concentration (x-axis) were plotted using GraphPad Prism Version 8 and IC50's calculated using nonlinear regression analysis (Sigmoidal, 4 PL).” for “3912).”

[2] = molecular target: T3, surface-expressed CD73 on human PBMCs (Homo sapiens, UniProt P21589); assay: Human immune cell-based CD73 enzyme inhibition assay (PBMCs); conditions: AMP 300 μM, 2.5-3 h
T3 construct: 72400 (T cells); host or cells: human PBMCs / human T cells
T3 sequence (P21589 27-549): T1 sequence (P21589 27-549)
Protocol: (§2) The human immune cell-based CD73 enzyme inhibition assay was performed essentially as described above For the cell-free assay, with the following modifications. Human PBMCs (cat. no. HUMAN-PBMC-U-211140) or T cells (cat. no. 72400, Stem Cell Tech) were seeded at 8×10^3 cells/well into 96-well tissue culture-treated plates. […] Percent CD73 inhibition versus concentration were plotted using GraphPad Prism Version 8 and IC50's calculated using nonlinear regression analysis ([inhibitor]vs normalized response).

[3] = molecular target: T4, surface-expressed CD73 on human T cells (Homo sapiens, UniProt P21589); assay: Human immune cell-based CD73 enzyme inhibition assay (T cells); conditions: 2.5-3 h
T4 construct: 72400 (T cells); host or cells: human PBMCs / human T cells
T4 sequence (P21589 27-549): T1 sequence (P21589 27-549)
Protocol: as §2

IC50 (CD73)	IC50 [1]	IC50 [2]	IC50 ([3]; T Cells - Experiment 1, AMP 300 μM)	IC50 ([3]; T Cells - Experiment 2, AMP 300 μM)	Compound
26.1 nM	41.4 nM				C#CCOCCOCCOCCOCCOC1CCC2(CC1)CN(c1nc(Cl)nc3c1cnn3[C@@H]1O[C@H](COCP(=O)(O)O)[C@@H](O)[C@H]1O)C2 [Int-258]
		2.87 nM	1.47 nM	0.12 nM	O=C(CCOCCOCCOCCOCCn1cc(COCCOCCOCCOCCOC2CCC3(CC2)CN(c2nc(Cl)nc4c2cnn4[C@@H]2O[C@H](COCP(=O)(O)O)[C@@H](O)[C@H]2O)C3)nn1)Oc1c(F)cc(F)cc1F [Int-259]
